Experimental findings from patent US20130115256A1, “METHODS FOR TREATING OR PREVENTING VASCULAR GRAFT FAILURE” (priority 2010, published 2013) are described below.

For experiment [1], the system named is human saphenous vein (HSV). Nature of the experiment: Sodium nitroprusside-induced relaxation of human saphenous vein in muscle bath. The following applies: control peptide 50 or 100 μM; data not shown. Here is the method:
In preparation for testing vein segment functional viability, HSV rings were weighed and their lengths recorded. To focus on smooth muscle responses, the endothelium was mechanically denuded by rolling the luminal surface of each ring at the tip of a fine vascular forceps before suspension in a muscle bath containing a bicarbonate buffer (120 mM NaCl, 4.7 mM KCl, 1.0 mM MgSO4, 1.0 mM NaH2PO4, 10 mM glucose, 1.5 mM CaCl2, and 25 mM […], pH 7.4) equilibrated with 95% O2 and 5% CO2 at 37° C. The rings were stretched and the length progressively adjusted until maximal tension was obtained. Normalized reactivity was obtained by determining the passive length-tension relationship for each vessel segment. Rings were maintained at a resting tension of 1 g, which produces maximal responses to contractile agonists as previously determined, and equilibrated for 2 hours in buffer. Force measurements were obtained using a Radnoti Glass Technology (Monrovia, Calif.) force transducer (159901A) interfaced with a Powerlab data acquisition system and Chart software (AD Instruments, Colorado Springs, Colo.).
HSV rings were first contracted with 110 mM KCl (with equimolar replacement of NaCl in bicarbonate buffer) and the generated force was measured. 110 mM KCl causes membrane depolarization, leading to contraction of vessels containing functionally viable smooth muscle. After multiple KCl challenges, rings were washed and allowed to equilibrate in bicarbonate solution for 30 min, and then contracted with phenylephrine (PE, 10^−7-10^−6 M). Rings were relaxed with a cumulative log dose of sodium nitroprusside (SNP), a nitric oxide donor, and the force generated was recorded. All rings were again washed and equilibrated in buffer for 15 minutes. Rings were then incubated with either buffer alone or buffer plus 100 μM of MMI-0100 ([…] (SEQ ID NO: 1)) for 2 hours, followed by treatment with the same doses of PE and SNP, and the forces generated again recorded. Measured force was normalized for ring weight and length and percent relaxation was calculated; force generated with 10^−6M of PE was set as 0% relaxation.
The enhancing effect of MMI-0100 ([…]; SEQ ID NO: 1) on smooth muscle relaxation was examined by pre-treating harvested human saphenous vein (HSV) with MMI-0100 ([…]; SEQ ID NO: 1) before SNP treatment. Segments of human saphenous vein (HSV) were equilibrated in a muscle bath and pretreated with a control solution (0.01M phosphate-buffered solution, PBS) or MMI-0100 ([…] (SEQ ID NO: 1); 30 μM, 2 hrs), contracted with norepinephrine. and relaxed with increasing doses of sodium nitroprusside (SNP, 0-1 μM). Percentage of relaxation at 0, 0.01, 0.1, and 1.0 μM of SNP was measured. […]

The test system of experiment [2] is immortalized human pleural mesothelial cells (ATCC CRL-9444). Nature of the experiment: TNF-α-induced IL-6 expression in mesothelial cells (ELISA). It counts as cell-based. The text has this:
In order to examine the efficacy of MMI-0100 ([…]; SEQ ID NO: 1) in inhibiting the production of inflammatory cytokines, an inflammatory response was triggered in vitro by applying TNF-α to immortalized human pleural mesothelial cells (ATCC CRL-9444). A mesothelial cell is a cell type that forms a monolayer of specialized pavement-like cells (mesothelium) that lines the body's abdominal cavities and internal organs. The primary function of this layer, the mesothelium, is to provide a slippery, non-adhesive, and protective surface. Mesothelial cells also are involved in transport of fluid and cells across the peritoneal (abdominal) cavities, antigen presentation, inflammation, tissue repair, coagulation, and tumor cell adhesion. It is well known that mesothelial cells play important role in the peritoneal inflammatory response. In response to bacterial products and macrophage-derived inflammatory cytokines (e.g., TNF-α), mesothelial cells produce Interleukin-1 (IL-1), Interleukin-6 (IL-6), and Interleukin-8 (IL-8), thus amplifying the inflammatory signals and recruiting leukocytes into the infected abdominal cavity.
Expression of inflammatory cytokines was induced by applying 1 or 10 ng/ml of TNF-α to cultured mesothelial cells. Briefly, immortalized human pleural mesothelial cells (ATCC CRL-9444) were grown in Medium199 with Earle's BSS, 0.75 mM L-glutamine (Mediatech Inc., Manassas, Va.), 1.25 g/l sodium bicarbonate (Sigma), 3.3 nM epidermal growth factor (EGF) (MBL International, Woburn, Mass.), 40 nM hydrocortisone (Sigma), 870 nM insulin (MBL International), 20 mM HEPES (Sigma), trace elements mixture B (Mediatech Inc., Waltham, Mass.), 10% fetal bovine serum (FBS) (Hyclone), and 1% penicillin/streptomycin (Mediatech Inc., Waltham, Mass.). […] Human mesothelial cells were treated with two different concentrations (1 and 10 ng/mL) of TNF-α for 2, 6, 12, and 24 hours (data not shown). […] Without TNF-α stimulation, mesothelial cells made negligible amounts of IL-6. […] In subsequent experiments designed to determine whether the MMI-0100 peptide ([…]; SEQ ID NO: 1) could reduce TNF-α induced IL-6 expression, both 1 and 10 ng/mL of TNF-α were selected as stimuli. 10 ng/mL of TNF-α is regarded as more physiologically relevant for mesothelial cells.
Prior to cytokine and/or inhibitor treatment, cells were allowed to acclimate in serum-free media consisting of only Medium 199 with Earle's BSS, 0.75 mM L-glutamine, 1.25 g/l sodium bicarbonate, 20 mM HEPES, trace elements mixture B (Mediatech Inc., Waltham, Mass.), and 1% penicillin/streptomycin (Mediatech Inc., Waltham, Mass.) for 24 hours. After the adapting period, cytokines (TNF-α and IL-1β) with or without MMI-0100 peptide or Rottlerin (Tocris Bioscience, Ellisville, Mo.; IC50=5 μM) were added to the media in order to compare the efficacy of MMI-0100 ([…]; SEQ ID NO: 1) with that of Rottlerin. Specifically, serum-starved mesothelial cells were treated with two different concentrations (1000 μM or 3000 μM) of MMI-0100 ([…] (SEQ ID NO: 1)) at three different time points (6 hours, 12 hours, and 24 hours) using two different concentrations of TNF-α (1 ng/ml or 10 ng/ml) or using 1 ng/ml of IL-1β. Average concentration of IL-6 (pg/ml per 10^5 cells) at each time was determined by cytokine-specific ELISA.

As to “YARAAARQARA (mammal) [PTD peptide, control peptide (transduction domain, PTD peptide), reference compound]”, the “relaxation response compared to untreated control” value in experiment [1] is “no significant difference”.
For `CC(=O)c1c(O)c(C)c(O)c(Cc2c(O)c3c(c(C(=O)/C=C/c4ccccc4)c2O)OC(C)(C)C=C3)c1O` [Rottlerin, reference compound], in experiment [2] (1 ng/mL TNF-α, 6 hrs, Rottlerin), the “IL-6 expression compared with TNF-α alone” value is reported as “significantly increased”. In addition, the IL-6 expression entry was “ineffective” in experiment [2] (1 ng/mL TNF-α, Rottlerin) and “reduced IL-6 expression” in experiment [2] (10 ng/mL TNF-α, Rottlerin 1 μM, twenty-four hours).
